Assay results taken from patent publication US7285555B2, “6-aryl-7-halo-imidazo[1,2-a]pyrimidines as anticancer agents” (Wyeth Holdings Corporation, priority 2003, dated 2007).

Assays:
[1] = test system: KB-8-5 cells; assay: SRB cytotoxicity test procedure with KB-8-5 cells; type: cell-based, human; conditions: SRB assay
Source text: (§1) Human cancer cell lines, unless otherwise noted, are obtained from the American Type Culture Collection (Rockville, Md.). The following drug-sensitive parental cell lines, and their derived drug-resistant counterparts, are obtained from the originators as listed: (a) S1 (parental line from a subclone of human colon carcinoma line LS174T) and derived S1-M1-3.2 (herein called S1-M1) which expresses the MXR drug transporter protein, are provided by Dr. L. Greenberger, Wyeth Research (Rabindran, S. K., He, H., Singh, M., Brown, E., Collins, K. I., Annable, T., and Greenberger, L. M. Reversal of a novel multidrug resistance mechanism in human colon carcinoma cells by fumitremorgin C. Cancer Res., 58: 5850-5858,1998); (b) parental HL-60 human promyelocytic leukemia line and derived HL-60/ADR, which expresses the MRP1 drug transporter protein, are provided by Dr. M. Center, University of Kansas (McGrath, T., and Center, M. S. Adriamycin resistance in HL60 cells in the absence of detectable P-glycoprotein. Biochem. Biophys. […] J. Biol. Chem., 261: 7762-7770, 1986) via Dr. L. Greenberger, Wyeth Research.
The SRB standard cytotoxicity assay is done according to previously reported methods (Discafani, C. M., Carroll, M. L., Floyd Jr., M. B. F., Hollander, I. J., Husain, Z., Johnson, B. D., Kitchen, D., May, M. K., Malo, M. S., Minnick Jr., A. A., Nilakantan, R., Shen, R., Wang Y-F., Wissner, A., Greenberger, L. M. Irreversible inhibition of epidermal growth factor receptor tyrosine kinase with in vivo activity by N-[4-[3-bromophenyl)amino]-6-quinaxolinyl]-2-butynamide (CL-387,785). Biochem. Pharmacol., 57: 917-925, 1999). Briefly, cells are plated in 100 μL of medium in 96-well flat-bottom microtiter plates in the morning of day 1 and allowed to adhere to the plates for 2-6 hr. Compounds are serially diluted into medium as 2× stocks and 100 μL of these stocks are added to cells in duplicate. Compounds are incubated with cells for 3 days. At the end of the incubation period the sulforhodamine B (SRB) assay, which measures protein content as an assessment of cell survival, is performed as described previously (Skehan, P., Storeng, R., Scudiero, D., Monks, A., McMahon, J., Vistica, D., Warren, J. T., Bokesch, H., Kenney, S., Boyd, M. R. New calorimetric cytotoxicity assay for anticancer-drug screening. J. Natl. Cancer Inst., 82:1107-1112, 1990) with some modifications. Medium is gently decanted from plates and replaced with 200 μL per well of cold serum-free medium containing a final concentration of 10% trichloroacetic acid. The plates are incubated for 1 hr at 40, washed 5 times in cold distilled water, and air-dried overnight. […] Absorbance is read on a Victor V multi-label plate reader (Perkin Elmer, Gaithersburg, Md.). […]

[2] = test system: KB cells; assay: SRB cytotoxicity test procedure with KB cells; type: cell-based; conditions: Homo sapiens, SRB assay, means of 2 independent experiments
Source text: Human cancer cell lines, unless otherwise noted, are obtained from the American Type Culture Collection (Rockville, Md.). […]
The SRB standard cytotoxicity assay is done according to previously reported methods (Discafani, C. M., Carroll, M. L., Floyd Jr., M. B. F., Hollander, I. J., Husain, Z., Johnson, B. D., Kitchen, D., May, M. K., Malo, M. S., Minnick Jr., A. A., Nilakantan, R., Shen, R., Wang Y-F., Wissner, A., Greenberger, L. M. Irreversible inhibition of epidermal growth factor receptor tyrosine kinase with in vivo activity by N-[4-[3-bromophenyl)amino]-6-quinaxolinyl]-2-butynamide (CL-387,785). […] Absorbance is read on a Victor V multi-label plate reader (Perkin Elmer, Gaithersburg, Md.). […]

[3] = test system: KB-V1 cells; assay: SRB cytotoxicity test procedure with KB-V1 cells; type: cell-based, human; conditions: SRB assay
Source text: as §1
The SRB standard cytotoxicity assay is done according to previously reported methods (Discafani, C. M., Carroll, M. L., Floyd Jr., M. B. F., Hollander, I. J., Husain, Z., Johnson, B. D., Kitchen, D., May, M. K., Malo, M. S., Minnick Jr., A. A., Nilakantan, R., Shen, R., Wang Y-F., Wissner, A., Greenberger, L. M. Irreversible inhibition of epidermal growth factor receptor tyrosine kinase with in vivo activity by N-[4-[3-bromophenyl)amino]-6-quinaxolinyl]-2-butynamide (CL-387,785). Biochem. Pharmacol., 57: 917-925, 1999). Briefly, cells are plated in 100 μL of medium in 96-well flat-bottom microtiter plates in the morning of day 1 and allowed to adhere to the plates for 2-6 hr. Compounds are serially diluted into medium as 2× stocks and 100 μL of these stocks are added to cells in duplicate. Compounds are incubated with cells for 3 days. At the end of the incubation period the sulforhodamine B (SRB) assay, which measures protein content as an assessment of cell survival, is performed as described previously (Skehan, P., Storeng, R., Scudiero, D., Monks, A., McMahon, J., Vistica, D., Warren, J. T., Bokesch, H., Kenney, S., Boyd, M. R. New calorimetric cytotoxicity assay for anticancer-drug screening. J. Natl. Cancer Inst., 82:1107-1112, 1990) with some modifications. Medium is gently decanted from plates and replaced with 200 μL per well of cold serum-free medium containing a final concentration of 10% trichloroacetic acid. The plates are incubated for 1 hr at 40, washed 5 times in cold distilled water, and air-dried overnight. The fixed cells are stained for 10 min with 80 μL per well of 0.04% SRB solution prepared in 1% glacial acetic acid. Staining solution is decanted, plates are washed 5 times in 1% glacial acetic acid, and then air-dried until completely dry. Stained cell product is dissolved in 150 μL per well of 10 mM Trizma Base with shaking for 20 minutes. Absorbance is read on a Victor V multi-label plate reader (Perkin Elmer, Gaithersburg, Md.).
The KB lines express different amounts of the P-glycoprotein (MDR1) membrane pump which produces resistance to the action of many cytotoxic compounds, including paclitaxel and vincristine. The parental KB line expresses no P-glycoprotein, KB-8-5 expresses moderate levels of the protein, and KB-V1 expresses very high levels.

[4] = test system: COLO 205 cells; assay: MTS cytotoxicity test procedure with COLO 205 cells; type: cell-based; conditions: Homo sapiens, 72 h, MTS assay, three days of culture
Method: The MTS assay, which is sold in kit form by Promega (Madison, Wis.; CellTiter 96 AQueous Non-Radioactive Cell Proliferation Assay), is based on the conversion by viable cells, but not by dead cells, of the tetrazolium salt, MTS (3-(4,5-dimethylthiazol-2-yl)-5-(3-carboxymethoxyphenyl)-2-(4-sulphophenyl)-2H-tetrazolium, inner salt), into a water-soluble colored formazan which is detected by spectrophotometry. Compounds are tested at nine concentrations, in order to determine IC50 values. For the test procedure, cells are harvested by trypsinization (or, in the case of non-adherent cells, by simple resuspension), washed, counted and distributed to wells of 96-well flat-bottom microtiter plates at 1000 cells per well in 200 μL of medium. In addition, one row of wells on a separate plate receives cells as above (“time 0” plate). All plates are incubated at 370 in humidified 5% CO2 in air for about 24 hr.
On day 2, compounds for test are diluted and added to wells. Compounds are dissolved in DMSO at 10 mg/mL. For each compound, nine serial 2-fold dilutions are prepared in DMSO. Ten μL of each dilution in DMSO is transferred to 100 μL of medium, mixed well, and then 5 μL of this dilution is transferred in quadruplicate to wells containing cells. The final high concentration of each compound is typically 1-5 μM. Plates are returned to the incubator for three days. At the time of drug addition to the experimental plates, the MTS assay is run on the “time 0” plate. This gives the “time 0 MTS value” which is related to the number of viable cells per well at the time of drug addition.
After three days of culture with test compounds (day 5 overall), the MTS assay is done on all wells of the experimental plates. The absorbance values of the quadruplicate sample wells are averaged and divided by the average of the “time 0” values. The average of control wells without drug, divided by the average “time 0” value, gives the maximal relative increase in MTS color yield due to cell growth during the final three days of culture. The average of control wells with high drug concentration, divided by the “time 0” value, gives the minimal relative color yield for cells that were completely killed. The nine values for each compound are plotted against concentration, and the concentration that produces a relative color yield half way between the maximum and minimum is taken as the IC50 value.
COLO 205 is a human colon carcinoma cell line that is used for comparative testing of the examples of this invention and several reference compounds (Table 1). This line is sensitive to paclitaxel and vincristine.

For `CN(C)CCCOc1cc(F)c(-c2c(Cl)nc3nccn3c2NCC(F)(F)F)c(F)c1` [Example 4, 7-chloro-6-{4-[3-(dimethylamino)propoxy]-2,6-difluorophenyl}-N-(2,2,2-trifluoroethyl)imidazo[1,2-a]pyrimidin-5-amine], the melting point was 52 to 55 °C, the IC50 ([1]; Homo sapiens, KB 8.5 cells, means of 2 independent experiments) was 59 nM and the “Ratio 8.5/KB” value ([1]; IC50 on KB 8.5 cells/IC50 on KB cells) was 2.5. The IC50 [2] was 24 nM, the IC50 ([3]; Homo sapiens, KB-V1, KB VI cells, means of 2 independent experiments) was 2390 nM and the “Ratio VI/KB” value ([3]; IC50 on KB VI cells/IC50 on KB cells) was 99. It also gave an IC50 [4] of 88 nM.
